Experimental data as given in PMC12455130, “Multifunctional molecular agent for tau-targeted combinational therapy of Alzheimer’s disease” (The Journal of Biological Chemistry, 2025).

Assays:
[1] = target: T1, tau peptide R3 (Homo sapiens, UniProt P10636); assay: ThS assay, heparin-induced R3 aggregation (kinetics and dose-response); type: biochemical; conditions: for IC50: 3 h at 37 °C, ThS fluorescence; for inhibition of R3 assembly (ThS kinetics): 5, 10 and 40 μM, 15 μM R3, heparin
T1 construct: R3 (^306VQIVYK PVDLSK VTSKCG SLGNIH HKPGGG Q^336) and rabbit anti-tau antibody were purchased from MuJin; purchased MuJin
T1 sequence (P10636 623-653 limits assumed): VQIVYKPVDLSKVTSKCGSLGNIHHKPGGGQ
Description: The inhibition effect of 4GA–2GA on R3 aggregation was explored by thioflavin S (ThS) assay ([24]). In general, the kinetics of R3 aggregation in the absence or the presence of 4GA, 2GA was assessed by measuring the emission intensity of ThS at 500 nm, which reflects the amount of R3 aggregates. As the control experiments, the aggregation kinetics of 4ME and GA were also carried out. While induced by heparin, R3 aggregates rapidly at 37 °C, and the fluorescence of ThS reaches a maximum after an average time of 200 s (Fig. 4A). Based on the aforementioned conditions, the inhibitory ability of our synthetic compounds at three different concentrations (5, 10, and 40 μM) was tested.
Next, the dose–response inhibitory effects of our synthetic compounds on R3 aggregation were investigated. The detailed experimental operation was descripted in ESI. […] The apparent values of IC50 were calculated according to the dose−response curve.
Tau peptide R3 was adjusted to a concentration of 15 μM using 50 mM Tris−HCl buffer (pH 7.4), ThS (final concentration of 10 μM), and different amounts of 4GA, 2GA, 4ME, and GA (final concentration of 0, 5, 10, and 40 μM) as the aggregation inhibitor were added in1to the reaction mixture. Aggregation was induced by adding heparin to the solution (final concentration of 3.8 μM); the kinetics of each sample was immediately monitored by a fluorescence spectrophotometer with a 10-mm quartz cell at 440/500 nm (excitation/emission). A circulating water bath was necessary to maintain the temperature at 37 °C.
Tau peptide R3 was adjusted to a concentration of 15 μM using 50 mM Tris–HCl buffer (pH 7.4). Different amounts of 4GA, 2GA, 4ME, and GA (final concentration of 0, 1, 2, 4, 6, 10, 15, 20, 30, 40, 60, or 80 μM) as the aggregation inhibitors were added into the reaction mixture. Aggregation was induced by adding heparin to the solution (final concentration of 3.8 μM), After 3 h incubation at 37°C, ThS (final concentration of 10 μM) was added, and the fluorescence intensity at 440/500 nm (excitation/emission) was recorded on Hitachi F-7000 with a 10-mm quartz cell. The dose−response inhibitory effects of R3 aggregation were expressed by the aggregation percentage, which was calculated according to the following (Formula 4.3):(4.3) aggregation%=F-F0/Ft-F0×100
where F0 = fluorescence intensity of R3 monomer, Ft = fluorescence intensity of R3 aggregate, and F = fluorescence intensity of R3 aggregate in the presence of inhibitors. The IC50 values were also calculated according to the dose−response inhibitory effects.
Tau peptide R3 was adjusted to a concentration of 15 μM using Tris−HCl buffer (pH 7.4), and the synthetic compounds (4GA, 2GA, together with 4ME, GA as the comparison) at different concentrations, as aggregation inhibitor, were added into the reaction mixture separately. Aggregation was induced by heparin, and incubated at 37 °C for 3 h. By introducing fluorescence probe ThS, the dose−response inhibitory effects on R3 aggregation were recorded, according to normalized ThS fluorescence intensity (excitation: 440 nm, emission: 500 nm).
Figure S14. Inhibitory effects of N-substituted Azacrown on heparin-induced R3 aggregation, exermined by ThS fluorescence: 15 μM R3 and 3.8 μM heparin with cyclen, 1ME, 2ME, 3ME, and 4ME (80 μM) was incubated respectively at 37°C for 3h. 10 μM ThS was added to each of the solution, Spectra of ThS fluorescence were recorded at Ex440 nm.

[2] = tested on: ROS generated by R3 + Cu^2+; assay: ROS in solution, DCFH fluorescent probe; type: biochemical
Source text: In this experiment, the fluorescent probe, 2′,7′-dichlorodihydrofluorescein (DCFH), was used to detect the formation of ROS in solution.
Figure 7 The scavenge ability of 4GA and 2GA on ROS.A, time-dependent experiment for monitoring ROS level in solution at different conditions, using the fluorescent probe 2′,7′-dichlorodihydrofluorescein (DCFH). B, ROS levels in SK-N-SH cells treated with different conditions detected by the fluorescent probe of DCFH in flow cytometry. The data were reported as the mean ± SD, n = 3. Statistical analysis was performed using a one-way ANOVA test, ∗p < 0.05, ∗∗p < 0.01, and ∗∗∗p < 0.001 (n = 3). C, confocal laser scanning microscopy (CLSM) analysis of the intracellular ROS level stained with DCFH. Scale bar represents 12.5 μm. 2GA, (4,10-dimethyl-1,4,7,10-tetraazacyclododecane-1,7-diyl)bis((3,4,5-trihydroxyphenyl)methanone); 4GA, (1,4,7,10-tetraazacyclododecane-1,4,7,10-tetrayl)tetrakis((3,4,5-trihydroxyphenyl)methanone); ROS, reactive oxygen species.

[3] = Stability in Hepes by UV-visible absorption; type: physicochemical; conditions: Hepes 50 mM, pH 7.4, 0.2% DMSO; 10 μM, 37 °C; 72 h
Description: Therefore, in the following experiments, they were first dissolved in DMSO and further diluted in an excess of buffer. […] Logically, 1,4,7,10-tetramethyl-1,4,7,10-tetraazacyclododecane (4ME) and GA (compound structure was shown in Fig. S1) are considered as the precursor of 4GA and 2GA and therefore used as a comparative study to confirm whether the ancillary ligand had any effect on aggregation.
Figure S8. The stability of 4GA (A) and 2GA (B) in HEPES (50 mM, pH 7.4, 0.2% DMSO) verified by UV-vis absorption spectroscopy. All sample concentrations were 10 μM and kept at 37℃ in atmosphere.

Row | Compound | IC50 ([1]; 15 μM R3, 3.8 μM heparin) | inhibition of R3 assembly (ThS kinetics) ([1]; 37 °C) | DCFH fluorescence (ROS) in R3 + Cu2+ solution [2] | stability in buffer [3] | effect on heparin-induced R3 aggregation (ThS fluorescence at 500 nm) ([1]; 80 μM compound, 15 μM R3, 3.8 μM heparin, 37 °C, 3 h)
1 | O=C(c1cc(O)c(O)c(O)c1)N1CCN(C(=O)c2cc(O)c(O)c(O)c2)CCN(C(=O)c2cc(O)c(O)c(O)c2)CCN(C(=O)c2cc(O)c(O)c(O)c2)CC1 [4GA, (1,4,7,10-tetraazacyclododecane-1,4,7,10-tetrayl)tetrakis((3,4,5-trihydroxyphenyl)methanone)] | 3.8 µM | strongly inhibited R3 assembly | returning to the level observed in the R3 solution without Cu^2+ | remain stable at 72 h | –
2 | CN1CCN(C)CCN(C)CCN(C)CC1 [4ME, 1,4,7,10-tetramethyl-1,4,7,10-tetraazacyclododecane, reference compound] | – | – | – | – | did not hinder the aggregation of R3 peptides
3 | CN1CCN(C(=O)c2cc(O)c(O)c(O)c2)CCN(C)CCN(C(=O)c2cc(O)c(O)c(O)c2)CC1 [2GA, (4,10-dimethyl-1,4,7,10-tetraazacyclododecane-1,7-diyl)bis((3,4,5-trihydroxyphenyl)methanone)] | 5.5 µM | strongly inhibited R3 assembly | returning to the level observed in the R3 solution without Cu^2+ | remain stable at 72 h | –
4 | O=C(O)c1cc(O)c(O)c(O)c1 [GA, gallic acid, reference compound] | > 80 µM | – | could also quench the DCFH fluorescence | – | –
